From PubChem BioAssay (NCI)
Several values for one entry are separate records, joined by “and”; a condition that tells them apart may be missing. Identical values can stand only once.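 Compound exposure: 48 hours, 5 concentrations, 96-well plates. Here, GI50 denotes the concentration required for 50% inhibition of growth. TGI marks complete inhibition of growth.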

How the values were obtained:
Test in all cases: NCI tumour cell line growth inhibition, 48 h
[1] = test system: RXF 393 renal
[2] = test system: HCT-15 colon
[3] = test system: UO-31 renal
[4] = test system: K-562 leukemia
[5] = test system: SN12C renal
[6] = test system: SNB-75 CNS
[7] = test system: RPMI-8226 leukemia
[8] = test system: SF-268 CNS
[9] = test system: HOP-62 NSCLC
[10] = test system: TK-10 renal

Compound	TGI [1]	TGI [2]	TGI [3]	TGI [4]	TGI [5]	TGI [6]	TGI [7]	TGI [8]	TGI [9]	TGI [10]	GI50 [1]	GI50 [2]	GI50 [3]	GI50 [4]	GI50 [5]	GI50 [6]	GI50 [7]	GI50 [8]	GI50 [9]	GI50 [10]
CC1OC(OC2C(CO)OC(O[C@H]3CC[C@@]4(C)C(=CC[C@H]5[C@@H]6C[C@@H]7O[C@]8(CC[C@@H](C)CN8)[C@@H](C)[C@@H]7[C@@]6(C)CC[C@@H]54)C3)C(O)C2O)C(O)C(O)C1O (some centres undefined)	> 100 µM	> 100 µM	> 100 µM	> 100 µM	> 100 µM	> 100 µM	> 100 µM	> 100 µM	> 100 µM	> 100 µM	–	–	–	–	–	–	–	–	–	–
O=S(=O)(Nc1cc(Cl)ccc1Cl)c1ccc(-c2cnc(C3CC3)o2)cc1	6.65 µM	> 100 µM	43.5 µM	> 100 µM	> 100 µM	3.88 µM	> 100 µM	71.3 µM	27.5 µM	> 100 µM	1.06 µM	0.608 µM	2.49 µM	0.4 µM	4.32 µM	0.475 µM	2.44 µM	10.7 µM	1.64 µM	13.6 µM
COc1cnc2c(c1)C(=O)c1c-2n(CCCNC(C)C)c(=O)c2cc(F)ccc12	0.702 µM	1.32 µM	0.34 µM	1.72 µM	0.831 µM	1.39 µM	0.951 µM	1.68 µM	0.427 µM	0.623 µM	0.23 µM	0.163 µM	0.0801 µM	0.129 µM	0.164 µM	0.219 µM	0.154 µM	0.207 µM	0.107 µM	0.178 µM
CNC(=O)Oc1cc(C)c(/C=C/c2cncc(C(=O)NC)c2)c(C)c1	> 25 µM	> 25 µM	> 25 µM	> 25 µM	> 25 µM	24.6 µM	> 25 µM	> 25 µM	> 25 µM	> 25 µM	14.1 µM	> 25 µM	13.3 µM	15.3 µM	> 25 µM	9.45 µM	> 25 µM	> 25 µM	> 22.3 µM	> 25 µM
CCCCCCCCCCCCOC1C(C(CC(=O)N2CCN(c3cccc(C(F)(F)F)c3)CC2)NS(=O)(=O)c2cc(Cl)cc(Cl)c2)OC2OC(C)(C)OC21 (centres undefined)	> 100 µM	> 100 µM	> 100 µM	> 100 µM	> 100 µM	> 100 µM	> 100 µM	> 100 µM	> 100 µM	> 100 µM	> 100 µM	> 100 µM	> 100 µM	> 100 µM	> 100 µM	> 100 µM	> 100 µM	> 100 µM	> 100 µM	> 100 µM
CNC(=O)c1cccc2c(Nc3ccc(NS(C)(=O)=O)cc3OC)c3cccc(C)c3nc12	3.52 µM	2.34 µM	2.89 µM	4.79 µM	0.927 µM	1.34 µM	1.7 µM	8.58 µM	0.155 µM	8.2 µM	–	–	–	–	–	–	–	–	–	–
C/C(=C(\c1ccc(OCCN2CCCCCC2)cc1)c1ccc(OC(=O)Cc2ccccc2)cc1)c1ccc(Cl)cc1	4.45 µM	4.26 µM	4.21 µM	12.1 µM	5.07 µM	5.33 µM	5.47 µM	6.11 µM	5.59 µM	16.6 µM	2.03 µM	1.79 µM	2.08 µM	0.77 µM	2.56 µM	2.3 µM	1.82 µM	2.84 µM	2.67 µM	4.43 µM
C=C1C(=O)O[C@@H]2C1C[C@@H](O)C(=C)CC/C=C(\C)CCC[C@H](C)[C@H]2OC(C)=O (some centres undefined)	20.9 µM	14 µM	18.4 µM	7.76 µM	15.3 µM	33.6 µM	6.61 µM	30.5 µM	30.7 µM	5.57 µM	4.15 µM	3.04 µM	5.18 µM	2.8 µM	3.5 µM	13.9 µM	2.52 µM	11 µM	15.4 µM	2.11 µM
COc1cccc2c1c(C1=C(c3cn(C)c4ccccc34)C(=O)NC1=O)cn2C	> 25 µM	> 25 µM	> 25 µM	> 25 µM	> 25 µM	> 25 µM	> 25 µM	> 25 µM	> 25 µM	> 25 µM	> 25 µM	> 25 µM	> 25 µM	> 23.9 µM	> 25 µM	> 25 µM	> 25 µM	> 25 µM	> 25 µM	> 25 µM
C[C@H](CCCNCCCNCCCN)[C@H]1CC[C@H]2[C@@H]3[C@H](OCCCN)C[C@H]4C[C@H](OCCCN)CC[C@]4(C)[C@H]3C[C@H](OCCCN)[C@]12C	46.9 µM	> 100 µM	> 58.2 µM	3.6 µM	24.2 µM	> 83.9 µM	1.54 µM	16.1 µM	> 31.5 µM	51.6 µM	6.29 µM	3.14 µM	0.913 µM	0.458 µM	1.61 µM	8.49 µM	0.418 µM	1.54 µM	1.44 µM	2.18 µM
CCS(=O)(=O)Nc1cccc(Nc2c3cccc(C)c3nc3c(C)cccc23)c1OC	13.2 µM	> 100 µM	26 µM	> 45.3 µM	9.84 µM	22 µM	12.5 µM	> 56 µM	> 29.3 µM	11.5 µM	1.98 µM	1.31 µM	0.393 µM	1.55 µM	0.374 µM	1 µM	0.573 µM	0.98 µM	0.555 µM	2.24 µM
O=C(NCC(O)CNC(=O)C(F)(F)F)C(F)(F)F	> 100 µM	> 100 µM	> 100 µM	> 100 µM	> 100 µM	> 100 µM	> 100 µM	> 100 µM	> 100 µM	> 100 µM	–	–	–	–	–	–	–	–	–	–
O=C(NCc1ccco1)c1ccc(NC2=C(Cl)C(=O)N(Cc3ccccc3)C2=O)cc1	> 100 µM	74.4 µM	57.7 µM	49.7 µM	40.6 µM	> 100 µM	23.6 µM	54.1 µM	31.7 µM	76.7 µM	40.1 µM	17.7 µM	22.2 µM	21.2 µM	17.4 µM	41.9 µM	8.52 µM	17.8 µM	16.5 µM	30.7 µM
CC[C@@]1(O)C(=O)OCc2c1cc1n(c2=O)Cc2c-1nc1cc3c(cc1c2C)OCO3	0.141 µM and 0.0175 µM	> 100 µM	0.0415 µM	> 100 µM	27 µM	0.947 µM	0.23 µM	0.0136 µM	0.314 µM and 0.238 µM	3.56 µM	0.000755 µM	0.00936 µM	< 0.0001 µM	0.000488 µM	< 0.0001 µM	0.00123 µM	< 0.0001 µM	0.00108 µM	< 0.0001 µM	0.043 µM and 0.0311 µM
O=C(NCc1ccncc1)C12CC3CC(C1)CC(c1ccc(Cl)cc1)(C3)C2	23.6 µM	25.2 µM	22 µM	34.9 µM	27.3 µM	27.2 µM	71.7 µM	29.5 µM	27.2 µM	29.5 µM	10.7 µM	12.1 µM	10.2 µM	6.93 µM	13.4 µM	13.2 µM	7.59 µM	13.7 µM	14 µM	15.3 µM
CC(C)(C)OC(=O)NC(CO)c1cccc(OCc2ccccc2)c1 (centres undefined)	> 100 µM	> 100 µM	> 100 µM	> 100 µM	> 100 µM	> 100 µM	> 100 µM	> 100 µM	> 100 µM	> 100 µM	–	–	–	–	–	–	–	–	–	–
CSc1ncnc2c1ncn2C1OC(CO)C(O)OC1O (centres undefined)	38 µM	> 100 µM	31.2 µM	59.8 µM	41.3 µM	31.8 µM	79.5 µM	> 100 µM	35.4 µM	1.19 µM	–	–	–	–	–	–	–	–	–	–
CCOC(=O)C(C)(C)C(O)C(C)C (centres undefined)	> 100 µM	> 100 µM	> 100 µM	> 100 µM	> 100 µM	> 100 µM	> 100 µM	> 100 µM	> 100 µM	> 100 µM	–	–	–	–	–	–	–	–	–	–
CCc1cc2c(cc1N1CCC(N3CCOCC3)CC1)C(C)(C)c1[nH]c3cc(C#N)ccc3c1C2=O	3.47 µM and 3.78 µM and 3.84 µM	> 33.4 µM and 10.6 µM and 3.75 µM	3.12 µM and 2.75 µM and 2.72 µM	> 41.9 µM and 13.9 µM and > 10 µM	8.69 µM and 6.23 µM and 4.5 µM	2.63 µM and 2.73 µM and 2.9 µM	8.9 µM and > 10 µM	4.02 µM and 3.97 µM and 5.47 µM	2.61 µM and 3.03 µM and 3.42 µM	3.61 µM and 3.95 µM and 3.05 µM	1.5 µM and 1.53 µM	2.02 µM and 1.35 µM and 1.14 µM	1.23 µM and 1.13 µM and 1 µM	3.76 µM and 2.12 µM and 1.94 µM	2.23 µM and 1.44 µM and 1.55 µM	1.03 µM and 1.25 µM and 1.38 µM	0.549 µM and 0.415 µM and 0.497 µM	1.57 µM and 1.54 µM and 1.92 µM	0.849 µM and 1.4 µM and 1.43 µM	1.66 µM and 1.71 µM and 1.42 µM
C[n+]1ccc(-c2c3nc(c(-c4cc[n+](C)cc4)c4ccc([n-]4)c(-c4cc[n+](C)cc4)c4nc(c(-c5cc[n+](C)cc5)c5ccc2[n-]5)C=C4)C=C3)cc1.[I-].[Zn+2]	7.91 µM	> 100 µM	38.4 µM	59.8 µM	43.3 µM	32.8 µM	> 100 µM	25.9 µM	44.2 µM	38 µM	3.03 µM	> 100 µM	17.3 µM	23 µM	19.7 µM	12.5 µM	32.1 µM	11 µM	19.9 µM	15.2 µM
Nc1c(C(=O)c2ccc(CCCN3CCOCC3)cc2)cnn1-c1ccc(F)cc1	> 25 µM	> 25 µM	> 25 µM	> 25 µM	> 25 µM	> 25 µM	> 25 µM	> 25 µM	> 25 µM	> 25 µM	> 25 µM	> 25 µM	> 25 µM	9.33 µM	> 25 µM	> 25 µM	> 15.4 µM	> 25 µM	> 25 µM	> 25 µM
COc1ccc(-c2c(-c3cc(OC)c(OC)c(OC)c3)noc2N)cc1	19.8 µM	> 100 µM	> 100 µM	> 100 µM	> 69.8 µM	94.2 µM	5.96 µM	16.3 µM	38.9 µM	> 56.5 µM	< 0.01 µM	< 0.0115 µM	–	< 0.01 µM	0.0374 µM	< 0.01 µM	0.0474 µM	< 0.0181 µM	0.0239 µM	0.461 µM
O=C(CCC(C(=O)c1ccccc1)c1ccccc1)c1ccccc1 (centres undefined)	> 100 µM	> 100 µM	> 100 µM	> 100 µM	> 100 µM	> 100 µM	76.1 µM	> 100 µM	> 100 µM	> 100 µM	11.8 µM	4.92 µM	7.28 µM	3.75 µM	20.2 µM	27.2 µM	5.75 µM	35.6 µM	25.5 µM	38.6 µM
COC(=O)[C@H](Cc1ccc(O)cc1)NC(=O)[C@@H](OC)[C@@H]1Cc2cc3cc(OC4CC(OC5CC(O)C(O)C(C)O5)C(O)C(C)O4)c(C)c(O)c3c(O)c2C(=O)[C@H]1OC1CC(OC2CC(OC3CC(C)(O)C(O)C(C)O3)C(O)C(C)O2)C(O)C(C)O1 (some centres undefined)	0.292 µM	> 25 µM	> 25 µM	> 25 µM	> 25 µM	1.08 µM	2.02 µM	> 25 µM	> 25 µM	> 25 µM	0.0544 µM	1.95 µM	0.914 µM	0.116 µM	0.0595 µM	0.0773 µM	0.0417 µM	0.199 µM	0.106 µM	0.793 µM
N#C/C(=C/Sc1ccccc1)C(=O)O	58.2 µM	> 100 µM	41.4 µM	> 100 µM	57.5 µM	55.9 µM	> 100 µM	53.7 µM	> 100 µM	> 100 µM	–	–	–	–	–	–	–	–	–	–
C/C(=C\COc1c2c(cc3c1CCO3)OC1(C=C2)OC(CC/C(C)=C/COc2c3ccoc3cc3oc(=O)ccc23)C(C)(C)O1)CCC(O)C(C)(C)O (centres undefined)	> 100 µM	> 100 µM	> 100 µM	> 100 µM	> 100 µM	> 100 µM	23.2 µM	> 100 µM	> 100 µM	> 100 µM	79.8 µM	85 µM	25.7 µM	3.82 µM	89.1 µM	21.1 µM	2.95 µM	21.1 µM	> 100 µM	78.8 µM
